# Source: BindingDB's records for doi:10.1016/j.bmcl.2006.01.057 (Glaxosmithkline, 2006)
# pIC50: −log10 of the molar value.
# Molecular target: Glycogen synthase kinase-3 beta (Homo sapiens, UniProt P49841)
# Experiment: Kinase Inhibition SPA Assay
# Conditions: pH 7.2; 22 °C
# Description: The biochemical activity of compounds was determined by incubation with specific enzyme and substrate in the presence 2.5 uM ATP/ [gamma-33P] ATP. After incubation, the reaction was stopped and the phosphorylated substrate was separated from nonincorporated radioactive ATP using Streptavidin-coated SPA beads (Amersham Pharmacia), counted using TopCount (Packard) to measure substrate-incorporated phosphate.
# Chain of Glycogen synthase kinase-3 beta (P49841 whole entry): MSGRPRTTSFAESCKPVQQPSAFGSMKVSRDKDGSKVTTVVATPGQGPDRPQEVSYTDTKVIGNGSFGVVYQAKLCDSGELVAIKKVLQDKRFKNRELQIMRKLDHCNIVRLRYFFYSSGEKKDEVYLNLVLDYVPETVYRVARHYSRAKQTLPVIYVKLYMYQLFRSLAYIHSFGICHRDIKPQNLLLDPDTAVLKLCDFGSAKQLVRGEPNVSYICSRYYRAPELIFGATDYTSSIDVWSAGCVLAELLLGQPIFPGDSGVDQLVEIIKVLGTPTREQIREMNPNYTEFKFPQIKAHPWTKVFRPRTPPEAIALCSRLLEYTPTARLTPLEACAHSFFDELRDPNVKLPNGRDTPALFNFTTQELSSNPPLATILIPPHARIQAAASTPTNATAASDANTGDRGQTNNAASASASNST
row,pIC50,Structure (SMILES)
1,8.30,"COc1cccc(-c2c[nH]c3c(N=NCc4ccncc4)ncnc23)c1 [4-[(1E)-{2-[7-(3-methoxyphenyl)-5H-pyrrolo[3,2-d]pyrimidin-4-yl]hydrazin-1-ylidene}methyl]pyridine]"
2,6.30,"COc1cccc(-c2cn(C)c3c(N=NCc4ccncc4)ncnc23)c1 [4-[(1E)-{2-[7-(3-methoxyphenyl)-5-methyl-5H-pyrrolo[3,2-d]pyrimidin-4-yl]hydrazin-1-ylidene}methyl]pyridine]"
3,8.30,"COc1cccc(-c2n[nH]c3c(N=NCc4ccncc4)ncnc23)c1 [4-[(1E)-{2-[3-(3-methoxyphenyl)-1H-pyrazolo[4,3-d]pyrimidin-7-yl]hydrazin-1-ylidene}methyl]pyridine]"
4,6.20,COc1cccc(-n2cnc3c(N=NCc4ccncc4)ncnc32)c1 [9-(3-methoxyphenyl)-6-[(2E)-2-(pyridin-4-ylmethylidene)hydrazin-1-yl]-9H-purine]
5,7.50,"COc1cccc(-n2ccc3c(N=NCc4ccncc4)ncnc32)c1 [4-[(1E)-{2-[7-(3-methoxyphenyl)-7H-pyrrolo[2,3-d]pyrimidin-4-yl]hydrazin-1-ylidene}methyl]pyridine]"
6,8.20,"COc1cccc(-n2ncc3c(N=NCc4ccncc4)ncnc32)c1 [4-[(1E)-{2-[1-(3-methoxyphenyl)-1H-pyrazolo[3,4-d]pyrimidin-4-yl]hydrazin-1-ylidene}methyl]pyridine]"
